US12116343B2, “Inhibitors of APOL1 and methods of using same” (Vertex Pharmaceuticals Incorporated, priority 2020, dated 2024)

Target: T1, APOL1 G1 Protein (Homo sapiens, UniProt O14791, I384M/S342G)
T1 sequence (O14791 28-398 S342G/I384M): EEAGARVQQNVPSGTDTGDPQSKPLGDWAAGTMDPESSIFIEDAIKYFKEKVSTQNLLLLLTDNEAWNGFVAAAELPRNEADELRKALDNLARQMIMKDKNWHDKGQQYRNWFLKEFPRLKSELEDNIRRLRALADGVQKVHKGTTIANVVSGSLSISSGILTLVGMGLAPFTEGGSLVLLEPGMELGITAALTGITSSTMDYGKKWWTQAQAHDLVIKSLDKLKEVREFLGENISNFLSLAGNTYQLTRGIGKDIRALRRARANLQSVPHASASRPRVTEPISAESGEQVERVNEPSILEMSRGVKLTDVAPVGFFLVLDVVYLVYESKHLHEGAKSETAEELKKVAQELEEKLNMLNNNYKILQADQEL
Assay: Trypanosoma brucei brucei lysis assay using APOL1 recombinant protein (AlamarBlue viability)
Assay type: cell-based
Conditions: Trypanosoma brucei brucei lysis, recombinant APOL1, AlamarBlue; read-out: Trypanosoma Assay (IC50)
Procedure, shortened: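 Bloodstream-form T. b. brucei Lister 427 VSG 221, 120,000 parasites/well in phenol red-free, FBS-free medium, lysed by recombinant APOL1 G1 with compound (10-point dose response, 0.1% DMSO final). Viability read by AlamarBlue fluorescence against a parasite standard curve.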

| SMILES | IC50 [nM] |
| --- | --- |
| CC(C)(NC(=O)[C@H]1C[C@H](c2c(-c3ccc(F)cc3)[nH]c3c(F)cc(F)cc32)C1)C(=O)N1CCOCC1 [Compound 66] | > 1000 |
| NC(=O)CNC(=O)[C@H]1C[C@H](c2c(-c3ccc(F)cc3)[nH]c3c(F)cc(F)cc32)C1 [Compound 1, N-(2-amino-2-oxo-ethyl)-3-[5,7-difluoro-2-(4-fluorophenyl)-1H-indol-3-yl]cyclobutanecarboxamide] | < 250 |
| CC(N)(C(=O)NC(=O)[C@H]1C[C@H](c2c(-c3ccc(F)cc3)[nH]c3c(F)cc(F)cc32)C1)C(F)(F)F (stereo partly shown) [Compound 60] | 250 to 1000 |
| CC(NC(=O)[C@H]1C[C@H](c2c(-c3ccc(F)cc3)[nH]c3c(F)cc(F)cc32)C1)C(N)=O (mixture of isomers) [Compound 68] | 250 to 1000 |
| NC(=O)[C@@H]1CCCN1C(=O)[C@H]1C[C@H](c2c(-c3ccc(F)cc3)[nH]c3c(F)cc(F)cc32)C1 [Compound 88] | > 1000 |
| C[C@H](NC(=O)[C@H]1C[C@H](c2c(-c3ccc(F)cc3)[nH]c3c(F)cc(F)cc32)C1)C(=O)N(C)C [Compound 65] | 250 to 1000 |
| Cn1ccc(CNC(=O)[C@H]2C[C@H](c3c(-c4ccc(F)cc4)[nH]c4c(F)cc(F)cc43)C2)n1 [Compound 71] | < 250 |
| CC1(O)CN(C(=O)[C@H]2C[C@H](c3c(-c4ccc(F)cc4)[nH]c4c(F)cc(F)cc43)C2)C1 [Compound 74] | 250 to 1000 |
| Cn1cnc(CNC(=O)[C@H]2C[C@H](c3c(-c4ccc(F)cc4)[nH]c4c(F)cc(F)cc43)C2)c1 [Compound 48] | < 250 |
| CC(C)N1CCN(C(=O)[C@H]2C[C@H](c3c(-c4ccc(F)cc4)[nH]c4c(F)cc(F)cc43)C2)CC1=O [Compound 63] | > 1000 |
| COCc1cc(CNC(=O)[C@H]2C[C@H](c3c(-c4ccc(F)cc4)[nH]c4c(F)cc(F)cc43)C2)n[nH]1 [Compound 72] | > 1000 |
| NCCCNC(=O)[C@H]1C[C@H](c2c(-c3ccc(F)cc3)[nH]c3c(F)cc(F)cc32)C1 [Compound 4] | < 250 |
| O=C1NCC[C@H]1NC(=O)[C@H]1C[C@H](c2c(-c3ccc(F)cc3)[nH]c3c(F)cc(F)cc32)C1 [Compound 45] | < 250 |
| O=C(NCC1(O)CCCC1)[C@H]1C[C@H](c2c(-c3ccc(F)cc3)[nH]c3c(F)cc(F)cc32)C1 [Compound 69] | > 1000 |
| CC(C)(O)C1CN(C(=O)[C@H]2C[C@H](c3c(-c4ccc(F)cc4)[nH]c4c(F)cc(F)cc43)C2)C1 [Compound 86] | > 1000 |
| O=C(OC1CN(C(=O)[C@H]2C[C@H](c3c(-c4ccc(F)cc4)[nH]c4c(F)cc(F)cc43)C2)C1)C1CCOCC1 [Compound 85] | < 250 |
| O=C(NCC1(CO)COC1)[C@H]1C[C@H](c2c(-c3ccc(F)cc3)[nH]c3c(F)cc(F)cc32)C1 [Compound 83] | > 1000 |
| NC(=O)C1(NC(=O)[C@H]2C[C@H](c3c(-c4ccc(F)cc4)[nH]c4c(F)cc(F)cc43)C2)CC1 [Compound 56] | 250 to 1000 |
| CC(NC(=O)[C@H]1C[C@H](c2c(-c3ccc(F)cc3)[nH]c3c(F)cc(F)cc32)C1)c1ccnn1C (mixture of isomers) [Compound 76] | > 1000 |
| O=C(NCCO)[C@H]1C[C@H](c2c(-c3ccc(F)cc3)[nH]c3c(F)cc(F)cc32)C1 [Compound 46, 3-[5,7-difluoro-2-(4-fluorophenyl)-1H-indol-3-yl]-N-(2-hydroxyethyl)cyclobutanecarboxamide] | < 250 |
| CN(C)C(=O)CN(C)C(=O)[C@H]1C[C@H](c2c(-c3ccc(F)cc3)[nH]c3c(F)cc(F)cc32)C1 [Compound 62] | > 1000 |
| O=C([C@H]1C[C@H](c2c(-c3ccc(F)cc3)[nH]c3c(F)cc(F)cc32)C1)N(CCO)C1CC1 [Compound 52] | 250 to 1000 |
| CN1CC(CNC(=O)[C@H]2C[C@H](c3c(-c4ccc(F)cc4)[nH]c4c(F)cc(F)cc43)C2)CC1=O (stereo partly shown) [Compound 70] | > 1000 |
| NC(=O)C1CCCCN1C(=O)[C@H]1C[C@H](c2c(-c3ccc(F)cc3)[nH]c3c(F)cc(F)cc32)C1 (stereo partly shown) [Compound 92] | 250 to 1000 |
| CN(CCO)C(=O)[C@H]1C[C@H](c2c(-c3ccc(F)cc3)[nH]c3c(F)cc(F)cc32)C1 [Compound 79] | < 250 |
